In BigSolDB 2.1:

Settings: in DMF

Row | solubility (mole fraction) (303.2 K) | solubility (mole fraction) (313.2 K) | solubility (mole fraction) (323.2 K) | solubility (mole fraction) (333.2 K) | solubility (mole fraction) (343.2 K) | solubility (mole fraction) (353.2 K) | SMILES
1 | 2.64e-05 | 3.51e-05 | 4.56e-05 | 6.16e-05 | 8.67e-05 | 0.000122 | Clc1ccc(-c2c3nc(c(-c4ccc(Cl)cc4)c4ccc([nH]4)c(-c4ccc(Cl)cc4)c4nc(c(-c5ccc(Cl)cc5)c5ccc2[nH]5)C=C4)C=C3)cc1
2 | 9.76e-05 | 0.000107 | 0.00012 | 0.000136 | 0.000166 | – | C1=Cc2nc1c(-c1ccccc1)c1ccc([nH]1)c(-c1ccccc1)c1nc(c(-c3ccccc3)c3ccc([nH]3)c2-c2ccccc2)C=C1
